# Key:
# [1] = molecular target: Cbl-b (Homo sapiens (Human), UniProt Q13191); experiment: Cbl-b LCK Ub TR-FRET assay (Cbl-b Lck HTRF); type: biochemical
# In short: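 TR-FRET (340 nm excitation, 615/665 nm emission) read after adding HA-ubiquitin–UBE2D2 thioester, anti-HA-D2 and streptavidin-Eu. Beforehand, compounds incubated 60 min with biotinylated Cbl-b, then 90 min with His-LCK and ATP (1 mM in 2× mix); IC50 from 10 concentrations, DMSO high and no-LCK low controls.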
# [2] = molecular target: c-Cbl (Homo sapiens (Human), UniProt P22681); experiment: C-Cbl LCK Ub TR-FRET assay (c-cbl Lck HTRF); type: biochemical; details: for (fold-selectivity): C-cbl Lck HTRF IC50 relative to Cbl-b Lck HTRF IC50
# In short: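 Signal is read once the detection mix has stood 20 min at ambient temperature. Curves are anchored by DMSO as maximum and by omission of LCK as minimum.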
# Cbl-b, sequence (Q13191 40-426): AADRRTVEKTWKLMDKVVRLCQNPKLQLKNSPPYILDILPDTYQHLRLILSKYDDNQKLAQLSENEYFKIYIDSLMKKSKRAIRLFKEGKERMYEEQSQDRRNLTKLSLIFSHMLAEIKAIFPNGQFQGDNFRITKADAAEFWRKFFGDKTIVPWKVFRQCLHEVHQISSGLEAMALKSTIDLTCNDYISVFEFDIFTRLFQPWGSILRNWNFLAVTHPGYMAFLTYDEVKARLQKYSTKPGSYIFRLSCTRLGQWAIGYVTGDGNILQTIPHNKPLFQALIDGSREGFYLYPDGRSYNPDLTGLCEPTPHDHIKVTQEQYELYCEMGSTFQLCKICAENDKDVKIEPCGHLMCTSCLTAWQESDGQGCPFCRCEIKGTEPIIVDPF
# c-Cbl, sequence (P22681 47-435): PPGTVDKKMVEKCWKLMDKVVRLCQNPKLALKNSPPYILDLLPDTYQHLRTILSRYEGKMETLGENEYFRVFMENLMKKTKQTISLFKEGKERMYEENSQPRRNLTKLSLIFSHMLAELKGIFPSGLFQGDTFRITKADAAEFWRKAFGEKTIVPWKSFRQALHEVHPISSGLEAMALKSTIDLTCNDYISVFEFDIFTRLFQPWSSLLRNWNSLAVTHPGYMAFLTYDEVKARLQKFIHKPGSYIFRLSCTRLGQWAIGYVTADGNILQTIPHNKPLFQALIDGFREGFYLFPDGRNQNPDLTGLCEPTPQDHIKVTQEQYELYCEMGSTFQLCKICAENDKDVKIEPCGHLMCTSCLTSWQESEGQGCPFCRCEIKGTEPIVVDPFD
SMILES,IC50 [1] [nM],IC50 [2] [nM],(fold-selectivity) [2]
"Cn1cnnc1CC1(c2cc(OC3CCCC3)nc(N3Cc4c(cccc4C(F)(F)F)C3=O)c2)COC1 [Compound 381, 2-(6-(cyclopentyloxy)-4-(3-((4-methyl-4H-1,2,4-triazol-3-yl)methyl)oxetan-3-yl)pyridin-2-yl)-4-(trifluoromethyl)isoindolin-1-one]",1100,7300,(5.9x)
"Cn1cnnc1CC1(c2cc(NC3C4CCC3C4)nc(N3Cc4c(cccc4C(F)(F)F)C3=O)c2)COC1 (stereo not drawn) [Compound 382, 2-(6-(bicyclo[2.1.1]hexan-5-ylamino)-4-(3-((4-methyl-4H-1,2,4-triazol-3-yl)methyl)oxetan-3-yl)pyridin-2-yl)-4-(trifluoromethyl)isoindolin-1-one]",820,20000,(24x)
"Cn1cnnc1C(F)(F)C1(c2cccc(N3Cc4c(cc(CN5CC(C)(O)C5)cc4C(F)(F)F)C3=O)c2)CC(F)(F)C1 [Compound 383, 2-(3-(1-(difluoro(4-methyl-4H-1,2,4-triazol-3-yl)methyl)-3,3-difluorocyclobutyl)phenyl)-6-((3-hydroxy-3-methylazetidin-1-yl)methyl)-4-(trifluoromethyl)isoindolin-1-one]",490,380,(0.77x)
"Cn1cnnc1[C@H](F)C1(c2cccc(N3Cc4c(cc(CN)cc4C(F)(F)F)C3=O)c2)CCC1 [Compound 386, (R)-6-(aminomethyl)-2-(3-(1-(fluoro(4-methyl-4H-1,2,4-triazol-3-yl)methyl)cyclobutyl)phenyl)-4-(trifluoromethyl)isoindolin-1-one]",32,31,(0.98x)
"Cn1cnnc1[C@@H](F)C1(c2cccc(N3Cc4c(cc(CN)cc4C(F)(F)F)C3=O)c2)CCC1 [Compound 387, (S)-6-(aminomethyl)-2-(3-(1-(fluoro(4-methyl-4H-1,2,4-triazol-3-yl)methyl)cyclobutyl)phenyl)-4-(trifluoromethyl)isoindolin-1-one]",58,53,(0.91x)
"CC(C)[C@H]1CN(C)CCN1C(C)c1cc2c(c(C(F)(F)F)c1)CN(c1cccc(C3([C@@H](F)c4nncn4C)CC(F)(F)C3)c1)C2=O (stereo partly drawn) [Compound 388, 2-(3-(3,3-difluoro-1-((R)-fluoro(4-methyl-4H-1,2,4-triazol-3-yl)methyl)cyclobutyl)phenyl)-6-(1-((S)-2-isopropyl-4-methylpiperazin-1-yl)ethyl)-4-(trifluoromethyl)isoindolin-1-one]",46,63,(1.4x)
"Cn1cnnc1[C@H](F)C1(c2cccc(N3Cc4c(cc([C@@H](N)C5CCC5)cc4C(F)(F)F)C3=O)c2)COC1 [Compound 391, 6-((S)-amino(cyclobutyl)methyl)-2-(3-(3-((R)-fluoro(4-methyl-4H-1,2,4-triazol-3-yl)methyl)oxetan-3-yl)phenyl)-4-(trifluoromethyl)isoindolin-1-one]",33,63,(1.9x)
"Cn1cnnc1[C@H](F)C1(c2cccc(N3Cc4c(cc([C@H](N)C5CCC5)cc4C(F)(F)F)C3=O)c2)COC1 [Compound 392, 6-((R)-amino(cyclobutyl)methyl)-2-(3-(3-((R)-fluoro(4-methyl-4H-1,2,4-triazol-3-yl)methyl)oxetan-3-yl)phenyl)-4-(trifluoromethyl)isoindolin-1-one]",13,15,(1.1x)
"Cn1cnnc1[C@H](F)C1(c2cccc(N3Cc4c(cc(CN)cc4C(F)(F)F)C3=O)c2)CC(F)(F)C1.O=CO [Compound 393, (R)-6-(aminomethyl)-2-(3-(3,3-difluoro-1-(fluoro(4-methyl-4H-1,2,4-triazol-3-yl)methyl)cyclobutyl)phenyl)-4-(trifluoromethyl)isoindolin-1-one formate]",130,170,(1.3x)
"Cn1cnnc1[C@@H](F)C1(c2cccc(N3Cc4c(cc(CN)cc4C(F)(F)F)C3=O)c2)CC(F)(F)C1.O=CO [Compound 394, (S)-6-(aminomethyl)-2-(3-(3,3-difluoro-1-(fluoro(4-methyl-4H-1,2,4-triazol-3-yl)methyl)cyclobutyl)phenyl)-4-(trifluoromethyl)isoindolin-1-one formate]",120,160,(1.3x)
"Cn1cnnc1[C@H](F)C1(c2cccc(N3Cc4c(cc(CN5CCCC5)cc4C(F)(F)F)C3=O)c2)CC(F)(F)C1 [Compound 395, (R)-2-(3-(3,3-difluoro-1-(fluoro(4-methyl-4H-1,2,4-triazol-3-yl)methyl)cyclobutyl)phenyl)-6-(pyrrolidin-1-ylmethyl)-4-(trifluoromethyl)isoindolin-1-one]",110,110,(1.0x)
"Cn1cnnc1[C@@H](F)C1(c2cccc(N3Cc4c(cc(CN5CCCC5)cc4C(F)(F)F)C3=O)c2)CC(F)(F)C1 [Compound 396, (S)-2-(3-(3,3-difluoro-1-(fluoro(4-methyl-4H-1,2,4-triazol-3-yl)methyl)cyclobutyl)phenyl)-6-(pyrrolidin-1-ylmethyl)-4-(trifluoromethyl)isoindolin-1-one]",120,150,(1.3x)

# Results, then the compound that gave them:
IC50 [1] [nM],IC50 [2] [nM],(fold-selectivity) [2],SMILES
22,25,(1.1x),"C[C@H](N)c1cc2c(c(C(F)(F)F)c1)CN(c1cccc(C3(Cc4nncn4C)CC(F)(F)C3)c1)C2=O [Compound 384, (S)-6-(1-aminoethyl)-2-(3-(3,3-difluoro-1-((4-methyl-4H-1,2,4-triazol-3-yl)methyl)cyclobutyl)phenyl)-4-(trifluoromethyl)isoindolin-1-one]"
24,22,(0.93x),"C[C@@H](N)c1cc2c(c(C(F)(F)F)c1)CN(c1cccc(C3(Cc4nncn4C)CC(F)(F)C3)c1)C2=O [Compound 385, (R)-6-(1-aminoethyl)-2-(3-(3,3-difluoro-1-((4-methyl-4H-1,2,4-triazol-3-yl)methyl)cyclobutyl)phenyl)-4-(trifluoromethyl)isoindolin-1-one]"
9.6,14,(1.4x),"Cn1cnnc1[C@H](F)C1(c2cccc(N3Cc4c(cc([C@@H](N)CC5CC5)cc4C(F)(F)F)C3=O)c2)COC1 [Compound 389, 6-((S)-1-amino-2-cyclopropylethyl)-2-(3-(3-((R)-fluoro(4-methyl-4H-1,2,4-triazol-3-yl)methyl)oxetan-3-yl)phenyl)-4-(trifluoromethyl)isoindolin-1-one]"
96,11,(1.1x),"Cn1cnnc1[C@H](F)C1(c2cccc(N3Cc4c(cc([C@H](N)CC5CC5)cc4C(F)(F)F)C3=O)c2)COC1 [Compound 390, 6-((R)-1-amino-2-cyclopropylethyl)-2-(3-(3-((R)-fluoro(4-methyl-4H-1,2,4-triazol-3-yl)methyl)oxetan-3-yl)phenyl)-4-(trifluoromethyl)isoindolin-1-one]"
150,150,(1.0x),"Cn1cnnc1[C@H](F)C1(c2cccc(N3Cc4c(cc(CN5CCC5)cc4C(F)(F)F)C3=O)c2)CC(F)(F)C1 [Compound 397, (R)-6-(azetidin-1-ylmethyl)-2-(3-(3,3-difluoro-1-(fluoro(4-methyl-4H-1,2,4-triazol-3-yl)methyl)cyclobutyl)phenyl)-4-(trifluoromethyl)isoindolin-1-one]"
140,180,(1.3x),"Cn1cnnc1[C@@H](F)C1(c2cccc(N3Cc4c(cc(CN5CCC5)cc4C(F)(F)F)C3=O)c2)CC(F)(F)C1 [Compound 398, (S)-6-(azetidin-1-ylmethyl)-2-(3-(3,3-difluoro-1-(fluoro(4-methyl-4H-1,2,4-triazol-3-yl)methyl)cyclobutyl)phenyl)-4-(trifluoromethyl)isoindolin-1-one]"
510,430,(0.84x),"Cn1cnnc1C(F)(F)C1(c2cccc(N3Cc4c(cc(CN)cc4C(F)(F)F)C3=O)c2)CC(F)(F)C1 [Compound 399, 6-(aminomethyl)-2-(3-(1-(difluoro(4-methyl-4H-1,2,4-triazol-3-yl)methyl)-3,3-difluorocyclobutyl)phenyl)-4-(trifluoromethyl)isoindolin-1-one]"
39,51,(1.3x),"Cn1cnnc1CC1(c2cccc(N3Cc4c(cc(CN)cc4C(F)(F)F)C3=O)c2)CC(F)(F)C1 [Compound 400, 6-(aminomethyl)-2-(3-(3,3-difluoro-1-((4-methyl-4H-1,2,4-triazol-3-yl)methyl)cyclobutyl)phenyl)-4-(trifluoromethyl)isoindolin-1-one]"
29,27,(0.95x),"CC[C@H]1CN(C)CCN1Cc1cc2c(c(C(F)(F)F)c1)CN(c1cccc(C3(Cc4nncn4C)CC(F)(F)C3)c1)C2=O [Compound 401, (S)-2-(3-(3,3-difluoro-1-((4-methyl-4H-1,2,4-triazol-3-yl)methyl)cyclobutyl)phenyl)-6-((2-ethyl-4-methylpiperazin-1-yl)methyl)-4-(trifluoromethyl)isoindolin-1-one]"
39,46,(1.2x),"CN1CCN(Cc2cc3c(c(C(F)(F)F)c2)CN(c2cccc(C4(Cc5nncn5C)CC(F)(F)C4)c2)C3=O)[C@@H](C2CC2)C1 [Compound 402, (S)-6-((2-cyclopropyl-4-methylpiperazin-1-yl)methyl)-2-(3-(3,3-difluoro-1-((4-methyl-4H-1,2,4-triazol-3-yl)methyl)cyclobutyl)phenyl)-4-(trifluoromethyl)isoindolin-1-one]"

# From patent US20250230147A1, “LACTAMS AS CBL-B INHIBITORS” (Genentech, Inc., priority 2021, published 2025)
